Results reported in ChEMBL document CHEMBL2086350, “Structure-activity relationship and antitumor activity of thio-benzodiazepines as p53-MDM2 protein-protein interaction inhibitors” (Eur J Med Chem, 2012).

Assays:
[1] = molecular target: E3 ubiquitin-protein ligase Mdm2 (Homo sapiens, UniProt Q00987); assay: Inhibition of MDM2 binding domain assessed as inhibition of p53 binding to MDM2 after 1 hr by fluorescence polarization assay
A549 = assay: Antiproliferative activity against human A549 cells expressing wild type p53 after 72 hrs by MTT assay; conditions: A549, 72 h
NCI-H1299 = assay: Antiproliferative activity against human p53-deficient NCI-H1299 cells after 72 hrs by MTT assay; conditions: NCI-H1299, 72 h
SAOS-2 = assay: Antiproliferative activity against human p53-deficient Saos2 cells after 72 hrs by MTT assay; conditions: SAOS-2, 72 h
U2OS = assay: Antiproliferative activity against human U2OS cells expressing wild type p53 after 72 hrs by MTT assay

E3 ubiquitin-protein ligase Mdm2, sequence (Q00987 whole entry, the tested form may be a part): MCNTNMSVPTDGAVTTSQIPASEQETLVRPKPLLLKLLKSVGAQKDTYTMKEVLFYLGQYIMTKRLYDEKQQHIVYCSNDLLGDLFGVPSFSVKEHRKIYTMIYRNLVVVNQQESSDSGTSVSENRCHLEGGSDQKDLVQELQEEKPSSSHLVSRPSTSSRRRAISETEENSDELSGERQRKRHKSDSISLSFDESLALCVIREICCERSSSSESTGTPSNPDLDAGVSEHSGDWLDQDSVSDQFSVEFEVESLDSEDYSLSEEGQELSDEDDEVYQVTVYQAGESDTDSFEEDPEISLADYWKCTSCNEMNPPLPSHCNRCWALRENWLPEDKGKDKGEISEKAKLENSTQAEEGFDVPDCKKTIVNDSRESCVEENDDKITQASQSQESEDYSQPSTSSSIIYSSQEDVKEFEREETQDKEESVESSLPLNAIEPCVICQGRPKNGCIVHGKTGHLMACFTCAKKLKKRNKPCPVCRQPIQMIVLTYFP

| Compound | Ki [1] [µM] | IC50 (A549) [µM] | IC50 (NCI-H1299) [µM] | IC50 (SAOS-2) [µM] | IC50 (U2OS) [µM] |
| --- | --- | --- | --- | --- | --- |
| COC(=O)C(c1ccc(Cl)cc1)N1C(=O)c2ccc(NCc3ccc(C(F)(F)F)cc3)cc2NC(=S)C1c1ccc(Cl)cc1 (centres undefined) | 6.7 | 25.7 | 42.6 | 25.3 | 15.9 |
| COC(=O)C(c1ccc(Cl)cc1)N1C(=O)c2ccc(Cl)cc2NC(=S)C1c1ccc(Cl)cc1 (centres undefined) | 1.37 | 37.2 | 16.5 | 11.1 | 12.1 |
| COC(=O)C(c1ccc(Cl)cc1)N1C(=O)c2cccc(Cl)c2NC(=S)C1c1ccc(Cl)cc1 (centres undefined) | > 100 | > 100 | > 100 | 61.8 | 88.5 |
| COC(=O)C(c1ccc(Cl)cc1)N1C(=O)c2cc(Cl)ccc2NC(=S)C1c1ccc(Cl)cc1 (centres undefined) | 0.721 | 18.7 | 24.7 | 8.91 | 3.5 |
| COC(=O)C(c1ccc(Cl)cc1)N1C(=O)c2ccc(F)cc2NC(=S)C1c1ccc(Cl)cc1 (centres undefined) |  | 8.44 | 16.5 | 6.59 | 12 |
| COC(=O)C(c1ccc(Cl)cc1)N1C(=O)c2cc(F)c(F)cc2NC(=S)C1c1ccc(Cl)cc1 (centres undefined) | > 100 | 11.3 | 5.73 | 3.84 | 2.61 |
| COC(=O)C(c1ccc(F)cc1)N1C(=O)c2ccc(Cl)cc2NC(=S)C1c1ccc(F)cc1 (centres undefined) | 1.72 | 25.6 | > 100 | 12.7 | 44.3 |
| COC(=O)C(c1ccc(F)cc1)N1C(=O)c2cc(Cl)ccc2NC(=S)C1c1ccc(Cl)cc1 (centres undefined) |  | 19.7 | 29.7 | 6.48 | 7.23 |
| COC(=O)C(c1ccc(Cl)cc1)N1C(=O)c2cccc(OC)c2NC(=S)C1c1ccc(Cl)cc1 (centres undefined) | 8.18 | > 100 | > 100 | > 100 | > 100 |
| COC(=O)C(c1ccc(Cl)cc1)N1C(=O)c2ccc(C(F)(F)F)cc2NC(=S)C1c1ccc(Cl)cc1 (centres undefined) |  | 26.9 | 11.1 | 6.78 | 5.69 |
| COC(=O)C(c1ccc(F)cc1)N1C(=O)c2ccc(C(F)(F)F)cc2NC(=S)C1c1ccc(Cl)cc1 (centres undefined) | 3.02 | 9.44 | 14 | 13.7 | 11.8 |
| COC(=O)C(c1ccc(Cl)cc1)N1C(=O)c2ccc(OC)cc2NC(=S)C1c1ccc(Cl)cc1 (centres undefined) | > 100 | > 100 | > 100 | 20 | 35.3 |
| COC(=O)C(c1ccc(Cl)cc1)N1C(=O)c2cccc(C)c2NC(=S)C1c1ccc(Cl)cc1 (centres undefined) | > 100 | > 100 | 73.3 | 19.1 | 27.8 |
| COC(=O)C(c1ccc(Cl)cc1)N1C(=O)c2cc(C)ccc2NC(=S)C1c1ccc(Cl)cc1 (centres undefined) | 37.7 | > 100 | 73.6 | 25.5 | 32.7 |
| COC(=O)C(c1ccc(Cl)cc1)N1C(=O)c2cc(F)ccc2NC(=S)C1c1ccc(Cl)cc1 (centres undefined) |  | 12.9 | 14.5 | 11.9 | 7.53 |
| COC(=O)C(c1ccc(F)cc1)N1C(=O)c2ccc(F)cc2NC(=S)C1c1ccc(Cl)cc1 (centres undefined) | 1.05 | 19.4 | 25 | 32.1 | 28 |
| COC(=O)C(c1ccc(Cl)cc1)N1C(=O)c2ccc(Br)cc2NC(=S)C1c1ccc(Cl)cc1 (centres undefined) | 3.98 | > 100 | 35.4 | 11 | 35.7 |
| COC(=O)C(c1ccc(Cl)cc1)N1C(=O)c2ccc(Cl)cc2NC(=S)C1c1ccc(C(F)(F)F)cc1 (centres undefined) |  | 23.7 | 39.5 | 9.23 | 27.4 |
| COC(=O)C(c1ccc(Cl)cc1)N1C(=O)c2ccc(Cl)cc2NC(=S)C1c1ccc(OC)cc1 (centres undefined) | 11.9 | > 100 | > 100 | > 100 | 33.9 |
| COC(=O)C(c1ccc(Cl)cc1)N1C(=O)c2ccc(Cl)cc2N=C(SC)C1c1ccc(Cl)cc1 (centres undefined) | > 100 | > 100 | > 100 | > 100 | 67.6 |
| CCOC(=O)CSC1=Nc2cc(OC)ccc2C(=O)N(C(C(=O)OC)c2ccc(Cl)cc2)C1c1ccc(Cl)cc1 (centres undefined) | 21.1 | > 100 | > 100 | > 100 | > 100 |
| COc1ccc(C2=N[C@@H](c3ccc(Cl)cc3)[C@@H](c3ccc(Cl)cc3)N2C(=O)N2CCNC(=O)C2)c(OC(C)C)c1 [NUTLIN-3] |  | 15 | 20.4 | 12.1 | 19.6 |
